Test results: patent US8431593B2, “Heteroaryl amide derivatives” (H. Lundbeck A/S, priority 2006, dated 2013)

These molecules were tested against T1, P2X7 receptor (Homo sapiens, UniProt Q99572) (assay: P2X7 calcium mobilization assay, high throughput, antagonist activity (Example 4A)). Details: fluorescence response of cells exposed to 80 μM 2′(3′)-O-(4-benzoyl-benzoyl)adenosine 5′-triphosphate; Example 4A; read-out: IC50.
T1 construct: host or cells: SH-SY5Y
T1 sequence (Q99572 1-595): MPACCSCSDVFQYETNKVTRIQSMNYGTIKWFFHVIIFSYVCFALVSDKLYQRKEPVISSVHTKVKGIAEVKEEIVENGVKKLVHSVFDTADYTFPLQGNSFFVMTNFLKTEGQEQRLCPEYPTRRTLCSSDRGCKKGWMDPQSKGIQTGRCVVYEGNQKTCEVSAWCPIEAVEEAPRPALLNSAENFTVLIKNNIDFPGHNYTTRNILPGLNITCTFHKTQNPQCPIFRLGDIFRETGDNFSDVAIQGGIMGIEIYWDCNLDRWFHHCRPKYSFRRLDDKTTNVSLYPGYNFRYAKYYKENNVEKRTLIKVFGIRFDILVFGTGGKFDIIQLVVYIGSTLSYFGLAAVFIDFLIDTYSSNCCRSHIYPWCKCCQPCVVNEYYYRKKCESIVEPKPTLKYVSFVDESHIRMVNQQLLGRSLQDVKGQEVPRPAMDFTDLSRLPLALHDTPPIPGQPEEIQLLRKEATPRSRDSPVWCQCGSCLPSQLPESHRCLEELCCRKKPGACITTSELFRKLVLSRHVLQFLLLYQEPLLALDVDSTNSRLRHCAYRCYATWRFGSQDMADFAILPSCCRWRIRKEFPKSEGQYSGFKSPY
Format: cell-based
In short: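 Cells plated at 100,000/well the day before were dye-loaded for 1 h, then incubated 1 h at room temperature with test compound before agonist-triggered calcium mobilization was read on FLIPR Tetra. Maximum RFU was corrected by subtracting the no-agonist control and related to the agonist-control response.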

IC50, < 2000 nM:
CCN(CC)C(=O)c1cn2c(NC(=O)CC34CC5CC(CC(C5)C3)C4)cccc2n1 [Compound 365, 5-[(adamantan-1-ylacetyl)amino]-N,N-diethylimidazo[1,2-a]pyridine-2-carboxamide]
COCCN(C)C(=O)c1cn2c(NC(=O)CC34CC5CC(CC(C5)C3)C4)cccc2n1 [Compound 366, 5-[(adamantan-1-ylacetyl)amino]-N-(2-methoxyethyl)-N-methylimidazo[1,2-a]pyridine-2-carboxamide]
CC(C)CN(C)C(=O)c1cn2c(NC(=O)CC34CC5CC(CC(C5)C3)C4)cccc2n1 [Compound 367, 5-[(adamantan-1-ylacetyl)amino]-N-isobutyl-N-methylimidazo[1,2-a]pyridine-2-carboxamide]
CN(CC1OCCO1)C(=O)c1cn2c(NC(=O)CC34CC5CC(CC(C5)C3)C4)cccc2n1 [Compound 368, 5-[(adamantan-l-ylacetyl)amino]-N-(1,3-dioxolan-2-ylmethyl)-N-methylimidazo[1,2-a]pyridine-2-carboxamide]
CCN(C)C(=O)c1cn2c(NC(=O)CC34CC5CC(CC(C5)C3)C4)cccc2n1 [Compound 369, 5-[(adamantan-1-ylacetyl)amino]-N-ethyl-N-methylimidazo[1,2-a]pyridine-2-carboxamide]
CN(C)C(=O)c1cn2c(NC(=O)CC34CC5CC(CC(C5)C3)C4)cccc2n1 [Compound 370, 5-[(adamantan-1-ylacetyl)amino]-N,N-dimethylimidazo[1,2-a]pyridine-2-carboxamide]
COC[C@@H]1CCCN1C(=O)c1cn2c(NC(=O)CC34CC5CC(CC(C5)C3)C4)cccc2n1 [Compound 371, 2-adamantan-1-yl-N-(2-{[(2S)-2-(methoxymethyl)pyrrolidin-1-yl]carbonyl}imidazo [1,2-a]pyridin-5-yl)acetamide]
CCCCN(CC)C(=O)c1cn2c(NC(=O)CC34CC5CC(CC(C5)C3)C4)cccc2n1 [Compound 373, 5-[(adamantan-1-ylacetyl)amino]-N-butyl-N-ethylimidazo[1,2-a]pyridine-2-carboxamide]
CCCN(CCC)C(=O)c1cn2c(NC(=O)CC34CC5CC(CC(C5)C3)C4)cccc2n1 [Compound 374, 5-[(adamantan-1-ylacetyl)amino]-N,N-dipropylimidazo[1,2-a]pyridine-2-carboxamide]
CCOC(=O)CN(CC)C(=O)c1cn2c(NC(=O)CC34CC5CC(CC(C5)C3)C4)cccc2n1 [Compound 375, ethyl N-({5-[(adamantan-1-ylacetyl)amino]imidazo [1,2-a]pyridin-2-yl}carbonyl)-N-ethylglycinate]
COC(=O)C1CCCN1C(=O)c1cn2c(NC(=O)CC34CC5CC(CC(C5)C3)C4)cccc2n1 (centres unmarked) [Compound 376, methyl 1-({5-[(adamantan-1-ylacetyl)amino]imidazo [1,2-a]pyridin-2-yl}carbonyl)prolinate]
COC(=O)CN(C)C(=O)c1cn2c(NC(=O)CC34CC5CC(CC(C5)C3)C4)cccc2n1 [Compound 377, methyl N-({5-[(adamantan-1-ylacetyl)amino]imidazo[1,2-a]pyridin-2-yl}carbonyl)-N-methylglycinate]
COCCN(C(=O)c1cn2c(NC(=O)CC34CC5CC(CC(C5)C3)C4)cccc2n1)C(C)C [Compound 379, 5-[(adamantan-1-ylacetyl)amino]-N-isopropyl-N-(2-methoxyethyl)imidazo [1,2-a]pyridine-2-carboxamide]
O=C1CCN(C(=O)c2cn3c(NC(=O)CC45CC6CC(CC(C6)C4)C5)cccc3n2)CCN1 [Compound 380, 2-adamantan-1-yl-N-{2-[(5-oxo-1,4-diazepan-1-yl)carbonl]imidazo [1,2-a]pyridin-5-yl}acetamide]
O=C(CC12CC3CC(CC(C3)C1)C2)Nc1cccc2nc(C(=O)N3CCC(C(F)(F)F)CC3)cn12 [Compound 382, 2-adamantan-1-yl-N-(2-{[4-(trifluoromethyl)piperidin-1-yl]carbonyl}imidazo[1,2-a]pyridin-5-yl)acetamide]
COC1CCN(C(=O)c2cn3c(NC(=O)CC45CC6CC(CC(C6)C4)C5)cccc3n2)CC1 [Compound 385, 2-adamantan-1-yl-N-{2-[(4-methoxypiperidin-1-yl)carbonyl]imidazo[1,2-a]pyridin-5-yl}acetamide]
O=C(CC12CC3CC(CC(C3)C1)C2)Nc1cccc2nc(C(=O)N3CCC(F)CC3)cn12 [Compound 387, 2-adamantan-1-yl-N-{2-[(4-fluoropiperidin-1-yl)carbonyl]imidazo[1,2-a]pyridin-5-yl}acetamide]
O=C(CC12CC3CC(CC(C3)C1)C2)Nc1cccc2nc(C(=O)N3CCC(F)(F)CC3)cn12 [Compound 388, 2-adamantan-l-yl-N-(2-[(4,4-difluoropiperidin-1-yl)carbonyl]imidazo [1,2-a]pyridin-5-yl}acetamide]
COCCC1CCN(C(=O)c2cn3c(NC(=O)CC45CC6CC(CC(C6)C4)C5)cccc3n2)CC1 [Compound 389, 2-adamantan-1-yl-N-(2-{[4-(2-methoxyethyl)piperidin-1-yl]carbonyl}imidazo[1,2-a]pyridin-5-yl)acetamide]
CN(C(=O)c1cn2c(NC(=O)CC34CC5CC(CC(C5)C3)C4)cccc2n1)C1CCOC1 (centres unmarked) [Compound 393, 5-[(adamantan-1-ylacetyl)amino]-N-methyl-N-(tetrahydrofuran-3-yl)imidazo[1,2-a]pyridine-2-carboxamide]
COCC1CCN(C(=O)c2cn3c(NC(=O)CC45CC6CC(CC(C6)C4)C5)cccc3n2)CC1 [Compound 396, 2-adamantan-1-yl-N-(2-{[4-(methoxymethyl)piperidin-1-yl]carbonyl}imidazo[1,2-a]pyridin-5-yl)acetamide]
CS(=O)(=O)NC1CCN(C(=O)c2cn3c(NC(=O)CC45CC6CC(CC(C6)C4)C5)cccc3n2)CC1 [Compound 398, 2-adamantan-1-yl-N-[2-({4-[(methylsulfonyl)amino]piperidin-1-yl}carbonyl)imidazo [1,2-a]pyridin-5-yl]acetamide]
CS(=O)(=O)N1CCN(C(=O)c2cn3c(NC(=O)CC45CC6CC(CC(C6)C4)C5)cccc3n2)CC1 [Compound 399, 2-adamantan-1-yl-N-(2-{[4-(methylsulfonyl)piperazin-1-yl]carbonyl}imidazo [1,2-a]pyridin-5-yl)acetamide]
CN(C)[S@SP3](=O)(=O)N1CCN(C(=O)c2cn3c(NC(=O)CC45CC6CC(CC(C6)C4)C5)cccc3n2)CC1 [Compound 400, 2-adamantan-1-yl-N-(2-{[4-(dimethylsulfamoyl)piperazin-1-yl]carbonyl}imidazo [1,2-a]pyridin-5-yl)acetamide]
CC(C)C(=O)NC1CCN(C(=O)c2cn3c(NC(=O)CC45CC6CC(CC(C6)C4)C5)cccc3n2)CC1 [Compound 402, N-[1-({5-[(adamantan-1-ylacetyl)amino]imidazo[1,2-a]pyridin-2-yl}carbonyl)piperidin-4-yl]-2-methylpropanamide]
CN(CCNS(C)(=O)=O)C(=O)c1cn2c(NC(=O)CC34CC5CC(CC(C5)C3)C4)cccc2n1 [Compound 404, 5-[(adamantan-1-ylacetyl)amino]-N-methyl-N-{2-[(methylsulfonyl)amino]ethyl} imidazo[1,2-a] pyridine-2-carboxamide]
CN(CCO)C(=O)c1cn2c(NC(=O)CC34CC5CC(CC(C5)C3)C4)cccc2n1 [Compound 405, 5-[(adamantan-1-ylacetyl)amino]-N-(2-hydroxyethyl)-N-methylimidazo[1,2-a]pyridine-2-carboxamide]
O=C(CC12CC3CC(CC(C3)C1)C2)Nc1cccc2nc(C(=O)N(CCO)C3CCCCC3)cn12 [Compound 407, 5-[(adamantan-1-ylacetyl)amino]-N-cyclohexyl-N-(2-hydroxyethyl)imidazo [1,2-a]pyridine-2-carboxamide]
CC(=O)NC1CCN(C(=O)c2cn3c(NC(=O)CC45CC6CC(CC(C6)C4)C5)cccc3n2)CC1 [Compound 408, N-{2-[(4-acetamidopiperidin-1-yl)carbonyl]imidazo[1,2-a]pyridin-5-yl}-2-adamantan-1-ylacetamide]
CCCC(=O)NC1CCN(C(=O)c2cn3c(NC(=O)CC45CC6CC(CC(C6)C4)C5)cccc3n2)CC1 [Compound 409, N-[1-({5-[(adamantan-1-ylacetyl)amino]imidazo[1,2-a]pyridin-2-yl}carbonyl)piperidin-4-yl]butanamide]
CCCCCN(CCO)C(=O)c1cn2c(NC(=O)CC34CC5CC(CC(C5)C3)C4)cccc2n1 [Compound 410, 5-[(adamantan-1-ylacetyl)amino]-N-(2-hydroxyethyl)-N-pentylimidazo[1,2-a]pyridine-2-carboxamide]
CC(C)(C)NCCOC(=O)c1cn2c(NC(=O)CC34CC5CC(CC(C5)C3)C4)cccc2n1 [Compound 411, 2-(tert-butylamino)ethyl 5-[(adamantan-1-ylacetyl)amino] imidazo [1,2-a]pyridine-2-carboxylate]
